{
  "source": "patent US20080249042A1",
  "about": "“All-Trans-Retinol: All-Trans-13,14-Dihydroretinol Saturase and Methods of Its Use” (UNIVERSITY OF WASHINGTON, priority 2004, published 2008)",
  "key": {"[1]": {"target": "T1, RALDH4 (Mus musculus, UniProt Q8BH00)", "T1 construct": "The full-length cDNA of RALDH2 (MGC:76772, IMAGE: 30471325), RALDH4 (MGC:46977, IMAGE:4223059), and CYP26A1 (MGC:13860, IMAGE:4210893) mRNA was obtained; expressed in transfected cells; host or cells: GnTI-negative HEK-293S, transient; cell homogenate", "T1 sequence (Q8BH00 1-487)": "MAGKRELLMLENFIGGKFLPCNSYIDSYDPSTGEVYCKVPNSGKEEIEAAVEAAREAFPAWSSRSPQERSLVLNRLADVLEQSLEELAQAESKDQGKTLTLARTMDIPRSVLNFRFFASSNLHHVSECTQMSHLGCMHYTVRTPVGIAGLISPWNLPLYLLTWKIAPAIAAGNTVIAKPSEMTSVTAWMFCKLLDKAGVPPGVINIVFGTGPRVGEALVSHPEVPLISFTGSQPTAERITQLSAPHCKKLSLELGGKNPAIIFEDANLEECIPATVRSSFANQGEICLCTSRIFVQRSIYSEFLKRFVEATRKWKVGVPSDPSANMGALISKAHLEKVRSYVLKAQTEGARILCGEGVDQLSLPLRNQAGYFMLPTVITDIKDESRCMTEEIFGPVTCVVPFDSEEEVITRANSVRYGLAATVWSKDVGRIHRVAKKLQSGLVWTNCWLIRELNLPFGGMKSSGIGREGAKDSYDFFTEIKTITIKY", "test": "RALDH oxidation assay, transfected HEK-293S homogenate", "assay_type": "biochemical", "settings": "cell homogenate with NAD, NADP, ATP", "procedure": "(§1) RALDH Oxidation Assay. N-Acetylglucosaminyltransferase I-negative HEK-293S cells, obtained from Dr. G. Khorana (Massachusetts Institute of Technology, Boston) were cultured in Dulbecco's modified Eagle's medium, 10% fetal calf serum and maintained at 37° C., 5% CO2, and 100% humidity. Reeves, et al. Proc. Natl. Acad. Sci. U.S.A. 99:13419-13424, 2002. For RALDH enzyme assays, cells were transiently transfected with RALDH1, -2, -3, or -4 expression constructs using Lipofectamine 2000 (Invitrogen) according to the manufacturer's protocol. After 48 h post-transfection, the cells were collected by scraping and were centrifuged. The cell pellet was washed in 137 mM NaCl, 2.7 mM KCl, and 10 mM phosphate (pH 7.4), resuspended in 50 mM Tris (pH 8.0) containing 250 mM sucrose, and homogenized with the aid of a Dounce homogenizer. Cofactors were added to a final concentration of 5 mM NAD, 5 mM NADP, and 1 mM ATP. An aliquot of the cell lysate was boiled for 10 min at 95° C. to provide the control for the nonenzymatic reaction. Substrates in the form of all-trans-RAL or a mixture of isomers of DRAL were added to the cell lysates at a final concentration of 60 μM. The reactions were allowed to proceed for 2 h at 37° C. with shaking and were stopped by the addition of 2 volumes of CH3CN. […] After each run, the column was washed with mixture B (60% tert-butylmethyl ether, 40% methanol) for 10 min at 1.6 ml/min, followed by re-equilibration in phase A. The elution of RA and DRA isomers was monitored at 340 and 290 nm, respectively. The peaks were identified based on their spectra and coelution with standards. The cell lysate was examined for expression of RALDH1-4 by SDS-PAGE and immunoblotting of the V5 epitope-tagged recombinant protein using an anti-V5 epitope monoclonal antibody (Invitrogen)."}, "[2]": {"target": "T2, RALDH2 (Mus musculus, UniProt Q62148)", "T2 construct": "The full-length cDNA of RALDH2 (MGC:76772, IMAGE: 30471325), RALDH4 (MGC:46977, IMAGE:4223059), and CYP26A1 (MGC:13860, IMAGE:4210893) mRNA was obtained; expressed in transfected cells; host or cells: GnTI-negative HEK-293S, transient; cell homogenate", "T2 sequence (Q62148 1-518)": "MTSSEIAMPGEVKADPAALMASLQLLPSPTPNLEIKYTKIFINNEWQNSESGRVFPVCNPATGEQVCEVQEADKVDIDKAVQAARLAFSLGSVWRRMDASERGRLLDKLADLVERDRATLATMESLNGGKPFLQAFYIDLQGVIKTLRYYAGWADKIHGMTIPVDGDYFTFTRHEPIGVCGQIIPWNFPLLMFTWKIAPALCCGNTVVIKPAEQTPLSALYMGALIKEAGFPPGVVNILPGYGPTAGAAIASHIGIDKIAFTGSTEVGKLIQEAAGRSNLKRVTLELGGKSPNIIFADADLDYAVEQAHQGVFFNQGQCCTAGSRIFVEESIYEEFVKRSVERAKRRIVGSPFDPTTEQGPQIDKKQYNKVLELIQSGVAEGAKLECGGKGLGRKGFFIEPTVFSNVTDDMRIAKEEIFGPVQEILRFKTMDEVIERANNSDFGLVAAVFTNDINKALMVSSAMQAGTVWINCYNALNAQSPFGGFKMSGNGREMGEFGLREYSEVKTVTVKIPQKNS", "test": "RALDH oxidation assay, transfected HEK-293S homogenate", "assay_type": "biochemical", "settings": "cell homogenate with NAD, NADP, ATP", "procedure": "as §1"}, "[3]": {"target": "T3, RALDH3 (Mus musculus, UniProt Q9JHW9)", "T3 construct": "expressed in transfected cells; host or cells: GnTI-negative HEK-293S, transient; cell homogenate", "T3 sequence (Q9JHW9 1-512)": "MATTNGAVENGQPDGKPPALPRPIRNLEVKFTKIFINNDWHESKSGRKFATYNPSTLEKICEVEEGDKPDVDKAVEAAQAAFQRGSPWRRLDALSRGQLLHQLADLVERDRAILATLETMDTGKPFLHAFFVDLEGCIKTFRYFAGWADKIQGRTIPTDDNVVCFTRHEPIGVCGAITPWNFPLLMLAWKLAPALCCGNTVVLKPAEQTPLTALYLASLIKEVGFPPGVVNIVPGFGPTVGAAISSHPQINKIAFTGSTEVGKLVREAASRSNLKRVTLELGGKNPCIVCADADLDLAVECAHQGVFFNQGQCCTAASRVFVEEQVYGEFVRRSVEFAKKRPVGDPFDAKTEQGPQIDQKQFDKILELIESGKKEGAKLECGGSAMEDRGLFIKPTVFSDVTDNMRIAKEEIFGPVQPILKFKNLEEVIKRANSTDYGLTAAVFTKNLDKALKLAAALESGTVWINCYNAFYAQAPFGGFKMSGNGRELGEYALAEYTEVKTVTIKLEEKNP", "test": "RALDH oxidation assay, transfected HEK-293S homogenate", "assay_type": "biochemical", "settings": "cell homogenate with NAD, NADP, ATP", "procedure": "as §1"}, "[4]": {"target": "T4, RALDH1 (Mus musculus, UniProt P24549)", "T4 construct": "expressed in transfected cells; host or cells: GnTI-negative HEK-293S, transient; cell homogenate", "T4 sequence (P24549 1-501)": "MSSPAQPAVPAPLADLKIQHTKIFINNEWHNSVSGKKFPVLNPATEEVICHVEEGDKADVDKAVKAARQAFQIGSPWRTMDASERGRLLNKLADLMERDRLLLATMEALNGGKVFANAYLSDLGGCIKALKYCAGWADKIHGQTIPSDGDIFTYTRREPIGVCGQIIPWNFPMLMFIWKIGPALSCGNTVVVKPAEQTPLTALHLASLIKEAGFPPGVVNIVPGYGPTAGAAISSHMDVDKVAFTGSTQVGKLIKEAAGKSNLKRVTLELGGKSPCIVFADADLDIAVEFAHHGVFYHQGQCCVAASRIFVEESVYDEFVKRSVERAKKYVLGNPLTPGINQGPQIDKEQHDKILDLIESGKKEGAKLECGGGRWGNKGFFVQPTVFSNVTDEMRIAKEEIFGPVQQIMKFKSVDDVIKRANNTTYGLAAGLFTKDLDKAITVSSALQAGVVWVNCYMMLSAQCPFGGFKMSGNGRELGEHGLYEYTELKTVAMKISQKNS", "test": "RALDH oxidation assay, transfected HEK-293S homogenate", "assay_type": "biochemical", "settings": "cell homogenate with NAD, NADP, ATP", "procedure": "as §1"}, "[5]": {"target": "T5, mouse RALDH1 (Mus musculus, UniProt P24549)", "T5 sequence (P24549 1-501)": "T4 sequence (P24549 1-501)", "settings": "cited from earlier work"}, "[6]": {"target": "T6, mouse RALDH2 (Mus musculus, UniProt Q62148)", "T6 sequence (Q62148 1-518)": "T2 sequence (Q62148 1-518)", "settings": "cited from earlier work"}},
  "data": [
    {"smiles": "CC(C=CC1=C(C)CCCC1(C)C)=CC=CC(C)CC=O", "note": "(stereo not drawn) [all-trans-DRAL, 13,14-dihydroretinaldehyde]", "values": [
      {"measurement": "Oxidation to the acid by RALDH4", "setting": "[1]", "value": "less efficient"},
      {"measurement": "Oxidation to the acid by RALDH2", "setting": "[2]", "value": "efficiently converted"},
      {"measurement": "Oxidation to the acid by RALDH3", "setting": "[3]", "value": "efficiently converted"},
      {"measurement": "Oxidation to the acid by RALDH1", "setting": "[4]", "value": "less efficient"}
    ]},
    {"smiles": "CC1=C(/C=C/C(C)=C/C=C/C(C)=C/C=O)C(C)(C)CCC1", "note": "[all-trans-RAL, all-trans-retinal, reference compound]", "values": [
      {"measurement": "Km", "setting": "[5]", "value": 11.6, "unit": "µM"},
      {"measurement": "Km", "setting": "[6]", "value": 0.66, "unit": "µM"},
      {"measurement": "Oxidation to the acid by RALDH4", "setting": "[1]", "value": "less efficient"},
      {"measurement": "Oxidation to the acid by RALDH2", "setting": "[2]", "value": "efficiently converted"},
      {"measurement": "Oxidation to the acid by RALDH3", "setting": "[3]", "value": "efficiently converted"},
      {"measurement": "Oxidation to the acid by RALDH1", "setting": "[4]", "value": "less efficient"}
    ]}
  ]
}
